These results are taken from patent US10052317B2, “Method for treating or preventing hot flushes” (Imperial Innovations Limited, priority 2013, dated 2018).

One data set has as its system healthy female subjects. The data set is described as follows: 180-min intravenous infusion of NKB to healthy women, hot flush symptom diary. Type of data set: in vivo, human. The method, then:
Eight healthy female subjects participated in the study, following ethical approval (reference: 10/H0707/68) and written consent, in accordance with The Declaration of Helsinki. All subjects had regular periods. No subjects had any history of hot flushes, deficient levels of sex hormones, or were receiving any regular medications.
(§1) Human sequence neurokinin B was obtained and used as described above.
[…] Continuous cardiac monitoring was performed. Heart rate, blood pressure, and adverse symptoms were recorded at regular intervals. Participants were asked to complete a symptom diary in order to measure subjective frequency and problem rating of hot flushes during each study visit. All subjects also completed a questionnaire at the end of each study visit to summarise the symptoms that they experienced that day. Data was analysed by an investigator in a blinded manner.
Data are presented as mean±standard error of mean (SEM). Multiple means were compared using one-way ANOVA with Dunnett's post-hoc test. Pairs of means were compared using paired two-tailed t-tests.

The subject of data set [1] is healthy female volunteers. In words: Double-blinded placebo-controlled physiological assessment study during iv infusion of NKB and vehicle to healthy women. The data set is classed as in vivo, human. Conditions: for mean HR / mean skin temperature by skin probe / mean skin temperature by thermal imaging camera / mean MAP: NKB infusion.
Excerpt: Ten healthy female volunteers participated in the study (mean age 35.3±1.3y; mean body mass index 22.1±0.7 kg/m2), following ethical approval (reference: 10/H0707/68) and written consent, in accordance with The Declaration of Helsinki. Participants had no medical problems, were not on any regular medication and had regular menstrual cycles. Participants attended in the mornings and during the follicular phase of their menstrual cycle to minimise physiological changes in body temperature occurring during sleep and associated with ovulation (1) (Day of menstrual cycle: 5.9±0.6)
as §1
Having observed in Example 3 that participants reported flushing during NKB infusion, a double-blinded placebo-controlled study was carried out. This was performed in a climate-controlled Clinical Research Unit with ambient temperature 24° C. and humidity 50% as has been established in previous studies to be a suitable environment to investigate menopausal flushing (e.g. de Bakker I P, Everaerd W, Maturitas (1996) 25:87-98; Carpenter J S, Gilchrist J M, Chen K, Gautam S, Freedman R R, Menopause: The Journal of The North American Menopause Society (2004) 11:375-381). Participants were admitted on a morning between days 3 and 10 of their menstrual cycle, and asked to lay supine for the 270 minute study duration (FIG. 3). A cannula was inserted into a large forearm vein in both arms: one for collection of blood, and the second for vehicle (gelofusin) or NKB infusion. 30 minute iv infusion of either NKB ([…]) or vehicle (equivalent volume) were commenced at t=60 min and t=180 min, by an investigator blinded to the identity of each infusion. Each participant received one NKB infusion and one vehicle infusion, randomised and prepared by an independent investigator. Participants were informed that they could receive any of the following: NKB followed by vehicle; vehicle followed by NKB; NKB twice; vehicle twice. This strategy ensured integrity of blinding, since any symptoms experienced during the first infusion would not allow participants to automatically deduce the identity of the second infusion.
In order to prevent confounding factors which may affect flushing, participants were asked to refrain from hot drinks, caffeine, alcohol and spicy foods for 12 hours preceding the study start and for the duration of the study. All participants wore light cotton standard hospital gowns. All studies commenced between 9.30-10.30 am. Two experienced physicians were in attendance at all times. Symptoms, heart rate, blood pressure, sweating and skin temperature monitoring were performed as detailed below:
Heart Rate (HR) and Mean Arterial Blood Pressure (MAP): HR was recorded minutely for 20 minutes pre-infusion until 20 minutes post-infusion. MAP was recorded at 5 minute intervals (to minimize discomfort) for 20 minutes pre-infusion until 20 minutes post-infusion. At other times HR and MAP were recorded at 10 minute intervals (FIG. 3). MAP (in mmHg) was calculated using the following standard formula: MAP=((2×diastolic BP)+systolic BP)/3.
Skin Temperature: Skin temperature was recorded each minute for 20 minutes pre-infusion until 20 minutes post-infusion and at 10 minute intervals at other times. Skin temperature was measured by skin temperature probe attached to the neck (Mindray, Huntingdon, UK) and by thermal imaging camera (T440Bx, Flir, Wilsonville, USA). Thermal imaging temperature values were determined by in-built software which recorded the highest temperature point in a box constructed to contain the shoulders and head of the participant.
Skin Conductance: Increased skin conductance is an objective marker of sweating which occurs in menopausal flushing. […]

The test system of a further data set is healthy male subjects. The data set is described as follows: Dose-finding study with 90-min intravenous infusion of NKB to healthy men. Type of data set: in vivo, human. The text has this:
Human sequence neurokinin B was synthesised by Bachem Holding AG (Bubendorf, Switzerland), and purified by reverse-phase high performance liquid chromatography (HPLC). Electrospray mass spectroscopy and amino acid analysis confirmed identity of the peptide (lot:3007511). The Limulus amoebocyte lysate test detected no endotoxin (Associates of Cape Cod, Liverpool, UK), and bacterial culture was sterile (Department of Microbiology, Hammersmith Hospital, London, UK) in samples of neurokinin B peptide. Vials of freeze-dried neurokinin B were stored at −20° C. and reconstituted in 0.9% saline.
23 healthy male subjects participated in the study (mean age of 23 subjects: 29.0±1.3 years; mean body mass index of 23 subjects: 23.3±0.3 kg/m2), following ethical approval (reference:10/H0707/68) and written consent, in accordance with The Declaration of Helsinki. No subjects had any history of hot flushes, deficient levels of sex hormones, or were receiving any regular medications.
Studies were performed in the Clinical Investigation Unit, during which subjects asked to lay supine. This study was blinded to subjects but not investigators. NKB was dissolved in a vehicle consisting of saline containing Gelofusin (5% vol/vol) (B. Braun Medical, Sheffield, UK) to minimize peptide adsorption. […] Heart rate, blood pressure, and adverse symptoms were recorded at regular intervals. […]

For data set [2], the system named is healthy female volunteers. In words: Symptom assessment study during 30-min iv infusion of NKB to healthy women. The data set is classed as in vivo, human. The settings on record: 5.12 nmol/kg/min iv for 30 min.
Excerpt: Five healthy female volunteers participated in the study (mean age 37.8±1.7y; mean body mass index 21.9±0.7 kg/m2), following ethical approval (reference: 10/H0707/68) and written consent, in accordance with The Declaration of Helsinki. Participants had no medical problems, were not on any regular medication and had regular menstrual cycles. Participants attended in the mornings and during the follicular phase of their menstrual cycle to minimise physiological changes in body temperature occurring during sleep and associated with ovulation (1) (Day of menstrual cycle: 8.0±0.9)
as §1
Participants were admitted in the morning to the Clinical Investigation Unit between days 3 and 10 of their menstrual cycle, and asked to lay supine for the 180 minute study duration (FIG. 2). A cannula was inserted into a large forearm vein and NKB (5.12 nmol/kg/min) was administered by intravenous (iv) infusion for 30 min commencing at t=90 min. This dose of NKB was selected as it was the maximal dose that was well-tolerated dose experiment 1, above. NKB was dissolved in saline containing gelofusin (5% vol/vol) (B. Braun Medical, Sheffield, UK) to minimize peptide adsorption (Kraegen E W, Lazarus L, Meler H, Campbell L, Chia Y O, Br Med J (1974), 3:464-466). Participants (but not investigators) were blinded as to the identity of the infusion (NKB or vehicle, however all participants received NKB). Participants were informed before the study that they may experience body sensations or symptoms and they were asked to report these in real time during the study. Participants were not specifically informed that they may experience ‘hot flush’ symptoms so as to minimise reporting bias.
Data are presented as mean±standard error of mean (SEM). Means were compared using two-tailed paired t-tests. p<0.05 was considered statistically significant.

In another data set the target is T1, NKR3 (Homo sapiens, UniProt P29371).
T1 sequence (P29371 1-465): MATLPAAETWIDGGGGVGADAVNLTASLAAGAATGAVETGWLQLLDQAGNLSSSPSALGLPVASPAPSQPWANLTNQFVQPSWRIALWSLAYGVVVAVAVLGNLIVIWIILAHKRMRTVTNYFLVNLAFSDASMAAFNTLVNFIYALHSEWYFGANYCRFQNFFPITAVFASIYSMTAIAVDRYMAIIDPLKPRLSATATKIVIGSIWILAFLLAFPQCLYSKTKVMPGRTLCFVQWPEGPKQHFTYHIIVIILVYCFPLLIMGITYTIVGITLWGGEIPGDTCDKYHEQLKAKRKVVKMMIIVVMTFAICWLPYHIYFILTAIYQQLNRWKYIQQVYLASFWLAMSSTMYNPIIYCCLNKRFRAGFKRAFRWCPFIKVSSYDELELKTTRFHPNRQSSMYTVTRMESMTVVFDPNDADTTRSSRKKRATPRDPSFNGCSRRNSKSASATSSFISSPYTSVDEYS
Conditions: literature (Spooren 2006; Griebel 2012; Elmore 2011); cited from earlier work.

The next data set deals with ovariectomised rats. The settings on record: Dacks et al. 2011; cited from earlier work.
Where [3] appears, read: 5.12 nmol/kg/h iv for 30 min, of the flushing participants.
The mark [4] stands for this setting: during flushing symptoms, p<0.05 vs. pre-symptoms.
The mark [5] stands for this setting: entire 30 minute NKB infusion period vs vehicle infusion period.
Setting [6] is: over the entire duration of the infusion.

*1 amine or outer side, *2 acyl side, *3 side chain or, on linkers, in order; H or OH if unused. Where a SMILES comes first, the peptide text is derived from it. [ ]: non-standard residue; d: D form. NMeF = CN[C@@H](Cc1ccccc1)C(=O)O; Suc = O=C(CCC(=O)[*:2])[*:1]

“NKB: Human sequence neurokinin B synthesised by Bachem, purified by reverse-phase HPLC; tachykinin peptide, natural ligand for NKR3”: the hot flushes experienced entry with healthy female subjects (healthy women, iv infusion 0.64 nmol/kg/h (lowest dose)) is given as “No hot flushes were experienced”. Also, the “healthy women who experienced hot flushes” value in the data set on healthy female subjects (iv infusion 1.28 nmol/kg/h) is listed as 1/6. Besides, the “healthy women who experienced hot flushes” value in the data set with healthy female subjects (iv infusion 2.56 nmol/kg/h) is recorded as 2/7. Also, in the data set on healthy female subjects (iv infusion 5.12 nmol/kg/h (highest dose)), the “healthy women who experienced hot flushes” value was 7/8. Moreover, the “mean number of hot flushes per visit” value with healthy female subjects (iv infusion 5.12 nmol/kg/h, mean±SEM, P<0.01 vs. placebo (0)) came to 1.13±0.30. In addition, in data set [1] (5.12 nmol/kg/h iv for 30 min), the “onset of first flushing episodes after NKB infusion initiation” value lay within 1 to 12 min and the “severity of flushing symptoms” value is on record as “mild to strong”. Also, the “participants who experienced flushing during NKB infusion” value in data set [1] (5.12 nmol/kg/h iv for 30 min, double-blinded) is on record as “eight out of ten”. In data set [1] (setting [3]), the “participants with a single flushing episode” value was “five”, the “participants with three flushing episodes” value is given as “two” and the “participants with two flushing episodes” value is listed as “one”. In addition, the “participants with concordant increases in sternal skin conductance at the time of flushing” value in data set [1] (5.12 nmol/kg/h iv, of the flushing participants) is “six of the eight”. Moreover, in data set [1] (setting [4]), the “mean HR” value is 76.2±1.6 bpm, the “mean skin temperature by skin probe” value was 34.7±0.3 Celsius and the “mean skin temperature by thermal imaging camera” value is recorded as 36.8±0.1 Celsius. Further, the “mean MAP” value in data set [1] (during flushing symptoms, p=ns vs. pre-symptoms) came out at 82.5±2.2 mmHg. In data set [1] (pre-symptom period), the “mean MAP” value is 83.2±8.6 mmHg, the “mean skin temperature by skin probe” value stood at 34.6±0.2 Celsius and the “mean skin temperature by thermal imaging camera” value came out at 36.7±0.1 Celsius. In data set [1] (pre-symptom period, mean±SEM), the “mean HR” value amounted to 70.3±2.1 bpm. In addition, in data set [1] (setting [5]), the “change in serum FSH” value is listed as “No significant changes”, the “change in serum LH” value is “No significant changes” and the “change in serum estradiol” value is on record as “No significant changes”. Also, in data set [1] (setting [6]), the “overall change in HR, NKB vs vehicle infusion” value is on record as “No overall changes”; the “overall change in mean arterial blood pressure (MAP), NKB vs vehicle infusion” value is on record as “No overall changes”; the “overall change in skin temperature (skin probe or thermal imaging camera), NKB vs vehicle infusion” value was “No overall changes”. For the same molecule, in the data set on healthy male subjects (10.24 nmol/kg/h), the “time to full resolution of symptoms after administration was discontinued” value is at most 5 min. Besides, the reproductive hormone secretion result in the data set with healthy male subjects (intravenous administration) was “did not stimulate significant reproductive hormone secretion”. In addition, in data set [2], the “participants experiencing flushing who reported a single flushing episode” value is recorded as “Three of the four” and the “participants who experienced three flushing episodes” value is reported as “one”. The “participants reporting flushing during NKB infusion” value in data set [2] (P<0.05 vs. vehicle) was “four out of the five”.
Consider `CC[C@H](NC(=O)c1c(O)c(-c2ccccc2)nc2ccccc12)c1ccccc1` [Talnetant, 3-hydroxy-2-phenyl-N-(1-phenylpropyl)quinoline-4-carboxamide], for which the “selectivity for NKR3 over NKR1 and NKR2” value on NKR3 is “selective for NKR3 over NKR1 and NKR2”.
As to `CSCC[C@H](NC(=O)[C@H](CC(C)C)NC(=O)CNC(=O)[C@H](Cc1ccccc1)N(C)C(=O)[C@H](Cc1ccccc1)NC(=O)[C@H](CC(=O)O)NC(=O)CCC(=O)O)C(N)=O` [senktide] (Suc-DF[NMeF]GLM-NH2), in the data set on ovariectomised rats, the core temperature result is on record as “reduced core temperature”.
Regarding `CC(=O)N(C)C1(c2ccccc2)CCN(CCC[C@]2(c3ccc(Cl)c(Cl)c3)CCCN(C(=O)c3ccccc3)C2)CC1` [Osanetant, (R)-N-{{3-[1-Benzoyl-3-(3,4-dichlorophenyl)piperidin-3-yl]prop-1-yl}-4-phenylpiperidin-4-yl}-N-methylacetamine], at NKR3, the “selectivity for NKR3 over NKR1 and NKR2” value was “selective for NKR3 over NKR1 and NKR2”.
